The values that follow come from patent US4650753A, “Novel substrates for use in measuring the concentration of kallikrein in urine” (Nitto Boseki Co., Ltd., priority 1984, dated 1987).

In one assay the target is T1, Urokinase (UK) (Homo sapiens, UniProt P00749).
T1 construct: purchased Mochida Pharmaceutical Co., Ltd. Lot No. 2C239
Briefly: Substrate specificity test: hydrolysis by urokinase, colorimetric. Format: biochemical. The following applies: for Absorbance (O.D.), UK: 700 nm (CHA substrate, pentacyanoamineferroate), S0 = 0.4 m mole, pH 8.2, 37° C., 5 minutes, 1000 U/ml enzyme. How it is done:
(§1) The specificities of newly synthesized substrates were tested by reacting each of them with various enzymes as follows.
(§2) (1) Substrate solution: 2 m moles/liter.H2 O
(§3) (2) Buffer solutions: 50 m moles of tris(hydroxymethyl)aminomethane/hydrochloric acid buffer solution and 150 m moles/liter of NaCl solution were used, and the reaction pH were specified with respect to the enzymes as follows. […]
(§4) (4) Reaction stopper (PNA): 10%-acetic acid
(§5) (5) Chromogenic reagent (CHA): Pentacyanoamineferroate
(§6) (6) Method of determination:
(§7) 0.3 Milliliter of the buffer solution and 0.1 ml of the enzyme reagent were taken in a hard glass test tube of which surface being treated with silicone, or a plastic test tube and preheated in a thermostat at 37° C. for 5 minutes so as to conduct the enzymatic reaction. Precisely 5 minutes after the reaction was started, 2.0 ml of reaction stopper solution or reaction terminating chromogenic reagent was added to terminate the enzymatic reaction. After the enzymatic reaction was completed, the reaction mixture was allowed to stand at 37° C. for 10 minutes, and then the absorbance at 405 nm or 700 nm was measured.

The next assay deals with T2, Thrombin (TH) (Bos taurus, UniProt P00735).
T2 construct: purchased Mochida Pharmaceutical Co., Ltd. Lot No. 65146
Briefly: Substrate specificity test: hydrolysis by thrombin, colorimetric. The following applies: for Absorbance (O.D.), TH: 700 nm (CHA substrate, pentacyanoamineferroate), S0 = 0.4 m mole, pH 8.5, 37° C., 5 minutes, 4.0 NIH/ml enzyme. Format: biochemical, Bovine. The procedure:
as §1, §2, §3, §4, §5, §6, §7

Assay [1] deals with T3, Human kallikrein in urine (HUK) (Homo sapiens, UniProt P06870).
T3 construct: purchased The Green Cross Corporation Lot No. Y1003SM
Briefly: Substrate specificity test: hydrolysis by human kallikrein in urine, colorimetric. Conditions: for Absorbance (O.D.), HUK: 700 nm (CHA substrate, pentacyanoamineferroate), S0 = 0.4 m mole, pH 9.0, 37° C., 5 minutes, 0.1 U/ml enzyme. Format: biochemical. How it is done: as §1, §2, §3, §4, §5, §6, §7

The next assay addresses T4, Plasmin (PL) (Homo sapiens, UniProt P00747).
T4 construct: purchased The Green Cross Corporation Lot No. PL-35
Put plainly: Substrate specificity test: hydrolysis by plasmin, colorimetric. Format: biochemical. Conditions: for Absorbance (O.D.), PL: 700 nm (CHA substrate, pentacyanoamineferroate), S0 = 0.4 m mole, pH 7.8, 37° C., 5 minutes, 0.25 CU/ml enzyme. The procedure:
as §1, §2, §3, §4, §5, §6, §7

The mark [2] stands for this setting: PS-2103N given as 100, S0 = 0.4 m mol.

T3 sequence (P06870 25-262): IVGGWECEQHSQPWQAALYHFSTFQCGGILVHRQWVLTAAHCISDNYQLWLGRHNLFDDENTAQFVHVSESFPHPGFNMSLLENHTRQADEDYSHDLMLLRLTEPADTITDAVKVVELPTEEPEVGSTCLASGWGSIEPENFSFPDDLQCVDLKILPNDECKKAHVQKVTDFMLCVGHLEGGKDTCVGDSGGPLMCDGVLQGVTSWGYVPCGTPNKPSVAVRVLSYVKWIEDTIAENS
T4 sequence (P00747 581-810 limits assumed): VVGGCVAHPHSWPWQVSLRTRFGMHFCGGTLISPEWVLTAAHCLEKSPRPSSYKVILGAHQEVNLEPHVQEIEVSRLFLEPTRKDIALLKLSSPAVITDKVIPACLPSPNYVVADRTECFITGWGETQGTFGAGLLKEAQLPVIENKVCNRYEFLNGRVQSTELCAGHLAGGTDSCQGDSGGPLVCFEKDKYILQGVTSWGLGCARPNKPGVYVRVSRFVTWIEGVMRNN
T4 sequence (P00747 97-580 partner limits assumed): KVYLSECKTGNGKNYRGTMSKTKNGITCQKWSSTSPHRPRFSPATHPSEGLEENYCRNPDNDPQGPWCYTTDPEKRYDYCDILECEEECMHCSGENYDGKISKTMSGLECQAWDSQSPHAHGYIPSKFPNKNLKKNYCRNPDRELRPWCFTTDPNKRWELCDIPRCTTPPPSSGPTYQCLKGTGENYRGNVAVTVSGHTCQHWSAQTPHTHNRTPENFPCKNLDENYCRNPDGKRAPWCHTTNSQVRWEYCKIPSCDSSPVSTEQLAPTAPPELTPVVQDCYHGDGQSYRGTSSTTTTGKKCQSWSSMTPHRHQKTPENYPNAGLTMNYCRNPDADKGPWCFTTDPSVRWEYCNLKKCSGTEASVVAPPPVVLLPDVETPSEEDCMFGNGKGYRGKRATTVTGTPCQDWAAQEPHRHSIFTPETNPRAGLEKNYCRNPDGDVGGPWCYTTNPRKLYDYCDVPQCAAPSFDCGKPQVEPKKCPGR

As to H-D-Ala-Phe-Arg-CHA [PS-2103], the “Absorbance (O.D.), UK” value on Urokinase (UK) is 0.0 OD. The “Relative reactivity to enzymes, UK” value on Urokinase (UK) (setting [2]) was 0. Moreover, the reactivity to urokinase on Urokinase (UK) (relative to PS-2103N = 100) is 0%. Moreover, the “Absorbance (O.D.), TH” value on Thrombin (TH) came out at 0.007 OD. Besides, the “Relative reactivity to enzymes, TH” value at Thrombin (TH) (setting [2]) amounted to 7. In addition, at Thrombin (TH) (relative to PS-2103N = 100), the reactivity to thrombin was found to be 7%. The “Absorbance (O.D.), HUK” value in assay [1] is 0.599 OD. Also, the “Relative reactivity to enzymes, HUK” value in assay [1] (setting [2]) was determined as 242. In addition, the “Absorbance (O.D.), PL” value on Plasmin (PL) is listed as 0.011 OD. The “Relative reactivity to enzymes, PL” value at Plasmin (PL) (setting [2]) is given as 4. Further, on Plasmin (PL) (relative to PS-2103N = 100), the reactivity to plasmin is 4%.
For the substance H-D-PGlu-Phe-Arg-CHA [PS-2102], the “Absorbance (O.D.), UK” value on Urokinase (UK) amounted to 0.0 OD. For the same substance, the “Absorbance (O.D.), TH” value at Thrombin (TH) was determined as 0.005 OD. The “Absorbance (O.D.), HUK” value in assay [1] was determined as 0.128 OD. For the same substance, the “Absorbance (O.D.), PL” value at Plasmin (PL) worked out at 0.016 OD.
For H-D-Pro-Phe-Arg-CHA [PS-2100] the same measures were 0.003 OD, 0.016 OD, 0.244 OD and 0.014 OD.
